Literature values as cited in patent US11052042B2, “Aqueous suspensions of ciclesonide for nebulisation” (Covis Pharma B.V., priority 2003, dated 2021).

Compound: CC(C)C(=O)OCC(=O)[C@@]12O[C@H](C3CCCCC3)O[C@@H]1C[C@H]1[C@@H]3CCC4=CC(=O)C=C[C@]4(C)[C@H]3[C@@H](O)C[C@@]12C [Ciclesonide, [11β,16α(R)]-16,17-[(Cyclohexylmethylen)bis(oxy)]-11-hydroxy-21-(2-methyl-1-oxopropoxy)pregna-1,4-dien-3,20-dion]
- concentration of the drug in the lungs (in vivo): high
- metabolism by liver oxidases (in vivo): very high
- plasma half-life (in vivo): low
- absorption after oral administration (oral administration): only moderately absorbed
- anti-inflammatory activity compared with budesonide (relative to budesonide): higher
- systemic activity compared with budesonide (relative to budesonide): three times lower
